In patent US20070244153A1 (priority 2004, published 2007):

Legend:
Plasmopara viticola = assay: Controlling effect against grape downy mildew (leaf disk immersion, 250 ppm); assay type: in vivo; details: grape leaf disk immersed 3 hours, 10th day after inoculation, untreated 60 to 70%
Experimental: The developed leaf of grape seedling (breed: Cabernet Sauvignon) grown in 1/2000 a pot was cut and prepared a leaf disk having a diameter of 32 mm. A solution of the compound in acetone was diluted with water to 250 ppm, and the leaf disk was immersed for 3 hours. The disk was taken from the agent solution, subjected to air-drying, and then inoculated by spray with a zoosporangia suspension of Plasmopara viticola. The test disk was incubated at 18° C. for 12 hours in a light-dark light cycle. On the 10th day after inoculation the infected area rate for the leaf disk was examined. Evaluation was carried out by the following criteria. The infected area rate for the untreated groups in the examination was 60 to 70%.

Phytophthora infestans = assay type: in vivo; details: 250 ppm spray, tomato seedling 4-leaf stage, 4th day after inoculation; untreated not less than 60%
Pyricularia oryzae = assay type: in vivo; details: 250 ppm spray, rice plant 4-leaf stage, 7th to 10th days after inoculation; untreated not less than 60
[1] = tested on: Pseudoperonospora cubensis; assay: Controlling effect against cucumber downy mildew (spray on cucumber seedlings, 250 ppm); assay type: in vivo; details: 250 ppm spray, cucumber seedling 1-leaf stage, 7th day after inoculation; untreated 60 to 80%
Experimental: A solution of the compound in acetone was diluted with water to 250 ppm, and the solution was sprayed to the cucumber seedling (breed: Sagamihangbak, two per plastic pot having a diameter of 7.5 cm) at 1-leaf stage in an amount of 10 mL of the compound/pot. After air-drying, the pot was transferred to a moist chamber provided in the greenhouse, and inoculated by spray with a zoosporic suspension of Pseudoperonospora cubensis. On the 7th day after inoculation the infected area rate for the leaves was examined. Evaluation was carried out by the following criteria.
The infected area rate for untreated groups in the examination was 60 to 80%.

Structure (SMILES) | Effect: controlling effect against grape downy mildew (infected area rate) (Plasmopara viticola) | Effect: controlling effect against tomato late blight (infected area rate) (Phytophthora infestans) | Effect: controlling effect against rice blast disease (number of lesions per pot) (Pyricularia oryzae) | Effect: controlling effect against cucumber downy mildew (infected area rate) [1] | melting point [°C]
Cc1ccc(C(=O)NC[C@@H](NC(=O)Oc2ccccc2)C(C)C)cc1 [Comparative Compound, reference compound] | C (the infected area rate of not less than 50%) | C (Infected area rate of not less than 50%) | A (The number of lesions of less than 5) | C (the infected area rate of not less than 50%) | 
CC(C)OC(=O)N[C@H](C(=O)N[C@H](CNC(=O)c1cccc2onnc12)C(C)C)C(C)C [Compound No. 929, N-[1-(S)-[(benzoxadiazol-4-yl)carbonylaminomethyl]-2-methylpropyl]3-methyl-2-(S)-[(1-methylethyl)oxycarbonylamino]butyramide] | B (the infected area rate of 5% to less than 50%) | A (Infected area rate of less than 5%) |  | A (the infected area rate of less than 5%) | 242.9
CC[C@H](C)[C@@H](CNC(=O)c1ccc2ccccc2n1)NC(=O)[C@@H](NC(=O)OC)C(C)C [Compound No. 698, N-[1-(S)-[[(quinoline-2-carbonyl)amino]methyl]-2-(S)-methylbutyl]2-(S)-(methyloxycarbonylamino)-3-methylbutyramide] | B (the infected area rate of 5% to less than 50%) | A (Infected area rate of less than 5%) |  | A (the infected area rate of less than 5%) | 174.6
CC(C)[C@@H](CNC(=O)c1cc2ccccc2o1)NC(=O)[C@H](C)NC(=O)OC(C)(C)C [Compound No. 601, N-[1-(S)-[[(benzofuran-2-carbonyl)amino]methyl]-2-methylpropyl]2-(S)-[(1,1-dimethylethyloxycarbonyl)amino]propionamide] | B (the infected area rate of 5% to less than 50%) | B (Infected area rate of 5% to less than 50%) |  | A (the infected area rate of less than 5%) | 163.1
C=COC(=O)N[C@H](C(=O)N[C@H](CNC(=O)c1cc2ccccc2o1)C(C)C)C(C)C [Compound No. 782, N-[1-(S)-[[(benzofuran-2-carbonyl)amino]methyl]-2-methylpropyl]3-methyl-2-(S)-[(vinyloxycarbonyl)amino]butyramide] | A (the infected area rate of less than 5%) | A (Infected area rate of less than 5%) |  | A (the infected area rate of less than 5%) | 192.7
